This experiment has as its target HPK1 (Homo sapiens (Human), UniProt Q92918). Kind of experiment: HPK1 Kinase Binding Assay. Summed up: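 Active HPK1 (added as 4 nM solution) was combined with compound (3-fold, 11-point series) and tracer 222 (18 nM) plus Eu-anti-GST antibody (4 nM) in 50 mM HEPES pH 7.5 with MgCl2 and DTT. After 1 h at 25 °C plates were read. Ki values were derived.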

Bounds are passed on as bounds.

Sequence of HPK1 (Q92918 1-346): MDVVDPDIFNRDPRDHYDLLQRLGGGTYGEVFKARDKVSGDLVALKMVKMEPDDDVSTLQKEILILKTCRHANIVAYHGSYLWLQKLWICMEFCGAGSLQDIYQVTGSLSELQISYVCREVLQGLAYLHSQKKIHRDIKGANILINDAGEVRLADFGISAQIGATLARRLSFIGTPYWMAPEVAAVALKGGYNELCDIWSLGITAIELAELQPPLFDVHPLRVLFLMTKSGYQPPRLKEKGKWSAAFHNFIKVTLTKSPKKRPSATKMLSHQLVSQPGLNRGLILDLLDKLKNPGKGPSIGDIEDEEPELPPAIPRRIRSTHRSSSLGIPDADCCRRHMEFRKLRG

Usually Ki stands for the equilibrium dissociation constant of an inhibitor or competing ligand from its target. A lower Ki goes with a stronger hold on the target. For the compound `CN1CCN(c2ccc(-c3n[nH]c4cnc(-c5c(F)ccc6c5CCCC6N)cc34)cc2)CC1` (centres unmarked) [Example 241, 6-Fluoro-5-(3-(4-(4-methylpiperazin-1-yl)phenyl)-1H-pyrazolo[3,4-c]pyridin-5-yl)-1,2,3,4-tetrahydronaphthalen-1-amine], the Ki is at most 100 nM.
Turning to `Cn1cc(-c2n[nH]c3cnc(-c4c(F)cc(NC(=O)CN5CCC5)c(F)c4F)cc23)cn1` [Example 77, 2-(Azetidin-1-yl)-N-(2,3,5-trifluoro-4-(3-(1-methyl-1H-pyrazol-4-yl)-1H-pyrazolo[3,4-c]pyridin-5-yl)phenyl)acetamide], the Ki is at most 100 nM.
The result for `CC(C)NCc1cc(F)c(-c2cc3c(-c4cnn(C)c4)n[nH]c3cn2)c(F)c1` [Example 123, N-(3,5-Difluoro-4-(3-(1-methyl-1H-pyrazol-4-yl)-1H-pyrazolo[3,4-c]pyridin-5-yl)benzyl)propan-2-amine] reads at most 100 nM; that for `COc1cccc(F)c1-c1cc2c(NC(=O)c3ccc(Br)cc3)n[nH]c2cn1` [Example 3, 4-Bromo-N-(5-(2-fluoro-6-methoxyphenyl)-1H-pyrazolo[3,4-c]pyridin-3-yl)benzamide], at most 100 nM.
The figure for `Cn1cc(-c2n[nH]c3cnc(-c4c(F)cc5c(c4F)C(N)CC5)c(F)c23)cn1` (centres unmarked) [Example 216, 5,7-Difluoro-6-(4-fluoro-3-(1-methyl-1H-pyrazol-4-yl)-1H-pyrazolo[3,4-c]pyridin-5-yl)-2,3-dihydro-1H-inden-1-amine] is at most 100 nM; for `Cn1cc(-c2n[nH]c3cnc(-c4c(F)cc(C5CCCN5)cc4C(F)(F)F)cc23)cn1` (single isomer, unassigned) [Example 226, 5-(2-Fluoro-4-(pyrrolidin-2-yl)-6-(trifluoromethyl)phenyl)-3-(1-methyl-1H-pyrazol-4-yl)-1H-pyrazolo[3,4-c]pyridine] it is at most 100 nM.
The figure for `CNC(=O)c1ccc(-c2n[nH]c3cnc(-c4c(F)cccc4OC)cc23)cc1OC` [Example 102, 4-(5-(2-Fluoro-6-methoxyphenyl)-1H-pyrazolo[3,4-c]pyridin-3-yl)-2-methoxy-N-methylbenzamide] is at most 100 nM.
`CNCc1cc(F)c(-c2cc3c(-c4ccc(N5CCN(C(C)=O)CC5)cn4)n[nH]c3cn2)c(OC(F)F)c1` [Example 193, 1-(4-(6-(5-(2-(Difluoromethoxy)-6-fluoro-4-((methylamino)methyl)phenyl)-1H-pyrazolo[3,4-c]pyridin-3-yl)pyridin-3-yl)piperazin-1-yl)ethanone] registered a Ki of at most 100 nM.
The figure for `CNC(=O)c1ccc(-c2n[nH]c3cnc(-c4c(F)cc5c(c4F)C(NC)CC5)cc23)cc1` (centres unmarked) [Example 204, 4-(5-(4,6-Difluoro-3-(methylamino)-2,3-dihydro-1H-inden-5-yl)-1H-pyrazolo[3,4-c]pyridin-3-yl)-N-methylbenzamide] is at most 100 nM; for `CN1CCN(c2ccc(-c3n[nH]c4cnc(-c5c(F)cccc5CO)cc34)cc2)CC1` [Example 196, (3-Fluoro-2-(3-(4-(4-methylpiperazin-1-yl)phenyl)-1H-pyrazolo[3,4-c]pyridin-5-yl)phenyl)methanol] it is at most 100 nM; for `CNCc1cc(F)c(-c2cc3c(-c4ccc(N5CCC(F)C5)cn4)n[nH]c3cn2)c(F)c1` (centres unmarked) [Example 167, 1-(3,5-Difluoro-4-(3-(5-(3-fluoropyrrolidin-1-yl)pyridin-2-yl)-1H-pyrazolo[3,4-c]pyridin-5-yl)phenyl)-N-methylmethanamine] it is at most 100 nM.
